{"source": "patent US20230085307A1", "about": "“PYRIDAZINONE COMPOUND AND HERBICIDE” (NISSAN CHEMICAL CORPORATION, priority 2019, published 2023)", "key": {"[1]": {"tested_on": "green foxtail", "test": "Test Example 5: herbicidal effect by foliage application, plastic box (Table 20, symbol G)", "type": "in vivo, green foxtail (Setaria viridis)", "details": "foliage application, 320 g/ha, evaluated three weeks after application", "summary_of_the_method": "(§1)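 Plants sown in sterilized diluvial soil and grown 14 days in a greenhouse at 25° C to 30° C, then sprayed on the foliage with the compound's emulsion diluted in water to a predetermined herbicide amount. Injury to weeds and crops scored three weeks after application on a visual rating scale.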"}, "[2]": {"tested_on": "Italian ryegrass", "test": "Test Example 5: herbicidal effect by foliage application, plastic box (Table 20, symbol K)", "type": "in vivo, Italian ryegrass (Lolium multiflorum)", "details": "foliage application, 320 g/ha, evaluated three weeks after application", "summary_of_the_method": "as §1"}, "[3]": {"tested_on": "wild oat", "test": "Test Example 4: herbicidal effect by soil treatment (Table 19, symbol I)", "type": "in vivo, wild oat (Avena fatua)", "details": "320 g/ha", "summary_of_the_method": "(§2)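 Three weeks of greenhouse growth at 25° C. to 30° C. followed a uniform surface spray of water-diluted emulsion at a predetermined herbicide amount. Seeds had been sown beforehand under about 1.5 cm of sterilized diluvial soil. Grading followed criteria set out in an earlier test.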"}, "[4]": {"tested_on": "barnyard grass", "test": "Test Example 3: herbicidal effect by foliage application, Wagner pot (Table 18, symbol H)", "type": "in vivo, barnyard grass (Echinochloa crus-galli)", "details": "320 g/ha", "summary_of_the_method": "(§3)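 Plants were sown in alluvial soil held under 0.1–0.5 cm standing water and grown 14 days in a greenhouse at 25–30 °C. An emulsifiable formulation, water-diluted to the set dose, was then sprayed onto the foliage, and effects were scored three weeks later using previously defined criteria.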"}, "[5]": {"tested_on": "wild oat", "test": "Test Example 5: herbicidal effect by foliage application, plastic box (Table 20, symbol I)", "type": "in vivo, wild oat (Avena fatua)", "details": "foliage application, 320 g/ha, evaluated three weeks after application", "summary_of_the_method": "as §1"}, "[6]": {"tested_on": "lambsquarters", "test": "Test Example 4: herbicidal effect by soil treatment (Table 19, symbol O)", "type": "in vivo, lambsquarters (Chenopodium album)", "details": "320 g/ha", "summary_of_the_method": "as §2"}, "[7]": {"tested_on": "barnyard grass", "test": "Test Example 4: herbicidal effect by soil treatment (Table 19, symbol H)", "type": "in vivo, barnyard grass (Echinochloa crus-galli)", "details": "320 g/ha", "summary_of_the_method": "as §2"}, "[8]": {"tested_on": "Italian ryegrass", "test": "Test Example 4: herbicidal effect by soil treatment (Table 19, symbol K)", "type": "in vivo, Italian ryegrass (Lolium multiflorum)", "details": "320 g/ha", "summary_of_the_method": "as §2"}, "[9]": {"tested_on": "rice flat sedge", "test": "Test Example 3: herbicidal effect by foliage application, Wagner pot (Table 18, symbol E)", "type": "in vivo, rice flat sedge (Cyperus iria)", "details": "320 g/ha", "summary_of_the_method": "as §3"}, "[10]": {"tested_on": "green foxtail", "test": "Test Example 4: herbicidal effect by soil treatment (Table 19, symbol G)", "type": "in vivo, green foxtail (Setaria viridis)", "details": "320 g/ha", "summary_of_the_method": "as §2"}, "[11]": {"tested_on": "blackgrass", "test": "Test Example 5: herbicidal effect by foliage application, plastic box (Table 20, symbol J)", "type": "in vivo, blackgrass (Alopecurus myosuroides)", "details": "foliage application, 320 g/ha, evaluated three weeks after application", "summary_of_the_method": "as §1"}, "[12]": {"tested_on": "barnyard grass", "test": "Test Example 5: herbicidal effect by foliage application, plastic box (Table 20, symbol H)", "type": "in vivo, barnyard grass (Echinochloa crus-galli)", "details": "foliage application, 320 g/ha, evaluated three weeks after application", "summary_of_the_method": "as §1"}, "[13]": {"tested_on": "southern crabgrass", "test": "Test Example 4: herbicidal effect by soil treatment (Table 19, symbol F)", "type": "in vivo, southern crabgrass (Digitaria ciliaris)", "details": "320 g/ha", "summary_of_the_method": "as §2"}, "[14]": {"tested_on": "redroot pigweed", "test": "Test Example 5: herbicidal effect by foliage application, plastic box (Table 20, symbol N)", "type": "in vivo, redroot pigweed (Amaranthus retroflexus)", "details": "foliage application, 320 g/ha, evaluated three weeks after application", "summary_of_the_method": "as §1"}, "[15]": {"tested_on": "velvetleaf", "test": "Test Example 4: herbicidal effect by soil treatment (Table 19, symbol M)", "type": "in vivo, velvetleaf (Abutilon theophrasti)", "details": "320 g/ha", "summary_of_the_method": "as §2"}, "[16]": {"tested_on": "windgrass", "test": "Test Example 5: herbicidal effect by foliage application, plastic box (Table 20, symbol L)", "type": "in vivo, windgrass (Apera spica-venti)", "details": "foliage application, 320 g/ha, evaluated three weeks after application", "summary_of_the_method": "as §1"}, "[17]": {"tested_on": "persian speedwell", "test": "Test Example 4: herbicidal effect by soil treatment (Table 19, symbol R)", "type": "in vivo, Persian speedwell (Veronica persica)", "details": "320 g/ha", "summary_of_the_method": "as §2"}, "[18]": {"tested_on": "windgrass", "test": "Test Example 4: herbicidal effect by soil treatment (Table 19, symbol L)", "type": "in vivo, windgrass (Apera spica-venti)", "details": "320 g/ha", "summary_of_the_method": "as §2"}, "[19]": {"tested_on": "redroot pigweed", "test": "Test Example 4: herbicidal effect by soil treatment (Table 19, symbol N)", "type": "in vivo, redroot pigweed (Amaranthus retroflexus)", "details": "320 g/ha", "summary_of_the_method": "as §2"}, "[20]": {"tested_on": "chickweed", "test": "Test Example 5: herbicidal effect by foliage application, plastic box (Table 20, symbol P)", "type": "in vivo, common chickweed (Stellaria media)", "details": "foliage application, 320 g/ha, evaluated three weeks after application", "summary_of_the_method": "as §1"}, "[21]": {"tested_on": "blackgrass", "test": "Test Example 4: herbicidal effect by soil treatment (Table 19, symbol J)", "type": "in vivo, blackgrass (Alopecurus myosuroides)", "details": "320 g/ha", "summary_of_the_method": "as §2"}, "[22]": {"tested_on": "Chinese sprangletop", "test": "Test Example 3: herbicidal effect by foliage application, Wagner pot (Table 18, symbol D)", "type": "in vivo, chinese sprangletop (Leptochloa chinensis)", "details": "320 g/ha", "summary_of_the_method": "as §3"}, "[23]": {"tested_on": "velvetleaf", "test": "Test Example 5: herbicidal effect by foliage application, plastic box (Table 20, symbol M)", "type": "in vivo, velvetleaf (Abutilon theophrasti)", "details": "foliage application, 320 g/ha, evaluated three weeks after application", "summary_of_the_method": "as §1"}, "[24]": {"tested_on": "persian speedwell", "test": "Test Example 5: herbicidal effect by foliage application, plastic box (Table 20, symbol R)", "type": "in vivo, Persian speedwell (Veronica persica)", "details": "foliage application, 320 g/ha, evaluated three weeks after application", "summary_of_the_method": "as §1"}, "[25]": {"tested_on": "southern crabgrass", "test": "Test Example 5: herbicidal effect by foliage application, plastic box (Table 20, symbol F)", "type": "in vivo, southern crabgrass (Digitaria ciliaris)", "details": "foliage application, 320 g/ha, evaluated three weeks after application", "summary_of_the_method": "as §1"}, "[26]": {"tested_on": "chickweed", "test": "Test Example 4: herbicidal effect by soil treatment (Table 19, symbol P)", "type": "in vivo, common chickweed (Stellaria media)", "details": "320 g/ha", "summary_of_the_method": "as §2"}, "[27]": {"tested_on": "lambsquarters", "test": "Test Example 5: herbicidal effect by foliage application, plastic box (Table 20, symbol O)", "type": "in vivo, lambsquarters (Chenopodium album)", "details": "foliage application, 320 g/ha, evaluated three weeks after application", "summary_of_the_method": "as §1"}}}
{"smiles": "CON=C(C)COc1ccc(-c2sc3ccc(F)cc3c2-c2c(O)c(C)nn(C)c2=O)cc1", "note": "[2-069]", "values": [{"measurement": "herbicidal effect on G: green foxtail", "setting": "[1]", "result": "5 (Herbicidal rate of 90% or more (almost completely withered))"}, {"measurement": "herbicidal effect on K: Italian ryegrass", "setting": "[2]", "result": "5 (Herbicidal rate of 90% or more (almost completely withered))"}, {"measurement": "herbicidal effect rating, I: wild oat", "setting": "[3]", "result": "0 (Herbicidal rate of 5% or less (almost no effect))"}, {"measurement": "herbicidal effect on H (barnyard grass), rating 0-5", "setting": "[4]", "result": "5 (Herbicidal rate of 90% or more (almost completely withered))"}, {"measurement": "herbicidal effect on I: wild oat", "setting": "[5]", "result": "2 (Herbicidal rate of 20% or more and less than 40%)"}, {"measurement": "herbicidal effect rating, O: lambsquarters", "setting": "[6]", "result": "5 (Herbicidal rate of 90% or more (almost completely withered))"}, {"measurement": "herbicidal effect rating, H: barnyard grass", "setting": "[7]", "result": "5 (Herbicidal rate of 90% or more (almost completely withered))"}, {"measurement": "herbicidal effect rating, K: Italian ryegrass", "setting": "[8]", "result": "5 (Herbicidal rate of 90% or more (almost completely withered))"}, {"measurement": "herbicidal effect on E (rice flat sedge), rating 0-5", "setting": "[9]", "result": "5 (Herbicidal rate of 90% or more (almost completely withered))"}, {"measurement": "herbicidal effect rating, G: green foxtail", "setting": "[10]", "result": "5 (Herbicidal rate of 90% or more (almost completely withered))"}, {"measurement": "herbicidal effect on J: blackgrass", "setting": "[11]", "result": "5 (Herbicidal rate of 90% or more (almost completely withered))"}, {"measurement": "herbicidal effect on H: barnyard grass", "setting": "[12]", "result": "5 (Herbicidal rate of 90% or more (almost completely withered))"}, {"measurement": "herbicidal effect rating, F: southern crabgrass", "setting": "[13]", "result": "5 (Herbicidal rate of 90% or more (almost completely withered))"}, {"measurement": "herbicidal effect on N: redroot pigweed", "setting": "[14]", "result": "5 (Herbicidal rate of 90% or more (almost completely withered))"}, {"measurement": "herbicidal effect rating, M: velvetleaf", "setting": "[15]", "result": "3 (Herbicidal rate of 40% or more and less than 70%)"}, {"measurement": "herbicidal effect on L: windgrass", "setting": "[16]", "result": "5 (Herbicidal rate of 90% or more (almost completely withered))"}, {"measurement": "herbicidal effect rating, R: persian speedwell", "setting": "[17]", "result": "5 (Herbicidal rate of 90% or more (almost completely withered))"}, {"measurement": "herbicidal effect rating, L: windgrass", "setting": "[18]", "result": "0 (Herbicidal rate of 5% or less (almost no effect))"}, {"measurement": "herbicidal effect rating, N: redroot pigweed", "setting": "[19]", "result": "5 (Herbicidal rate of 90% or more (almost completely withered))"}, {"measurement": "herbicidal effect on P: chickweed", "setting": "[20]", "result": "5 (Herbicidal rate of 90% or more (almost completely withered))"}, {"measurement": "herbicidal effect rating, J: blackgrass", "setting": "[21]", "result": "0 (Herbicidal rate of 5% or less (almost no effect))"}, {"measurement": "herbicidal effect on D (Chinese sprangletop), rating 0-5", "setting": "[22]", "result": "4 (Herbicidal rate of 70% or more and less than 90%)"}, {"measurement": "herbicidal effect on M: velvetleaf", "setting": "[23]", "result": "5 (Herbicidal rate of 90% or more (almost completely withered))"}, {"measurement": "herbicidal effect on R: persian speedwell", "setting": "[24]", "result": "5 (Herbicidal rate of 90% or more (almost completely withered))"}, {"measurement": "herbicidal effect on F: southern crabgrass", "setting": "[25]", "result": "5 (Herbicidal rate of 90% or more (almost completely withered))"}, {"measurement": "herbicidal effect rating, P: chickweed", "setting": "[26]", "result": "4 (Herbicidal rate of 70% or more and less than 90%)"}, {"measurement": "herbicidal effect on O: lambsquarters", "setting": "[27]", "result": "5 (Herbicidal rate of 90% or more (almost completely withered))"}]}
